Reference: ChEMBL document CHEMBL5360558, “Molecular design, synthesis and anticancer activity of new thiopyrano[2,3-d]thiazoles based on 5-hydroxy-1,4-naphthoquinone (juglone)” (Eur J Med Chem, 2023)
Activity calls are given as the source filed them. No cut-off for these calls is given here.

What was measured:
[1] = system: SF-268; experiment: Growth inhibition against human SF-268 cells assessed as lethal concentration incubated for 48 hrs by sulforhodamine B spectrophotometric assay; format: functional; settings: read-out: LC50 (the source's name)
[2] = Acute toxicity in C57BL/6 mouse assessed as lymphocyte count at 20 mg/kg,ip administration and observed after 22 days; format: organism-based; settings: in vivo, 528 h, time 22 day
[3] = system: TK-10; experiment: Growth inhibition against human TK-10 cells assessed as total growth inhibitory concentration incubated for 48 hrs by sulforhodamine B spectrophotometric assay; format: functional
[4] = system: HT-29; experiment: Growth inhibition of human HT-29 cells incubated for 48 hrs by sulforhodamine B spectrophotometric assay; format: functional
[5] = system: KB 3-1; experiment: Induction of apoptosis in human KB 3-1 cells assessed as increase in calnexin protein expression at 0.5 to 5 uM incubated for 3 hrs by Western blotting assay; format: functional, cell-based; settings: dose 0.5-5 µM
[6] = system: KB 3-1; experiment: Induction of apoptosis in human KB 3-1 cells assessed as increase in BIP protein expression incubated for 24 hrs by Western blotting assay; format: functional, cell-based
[7] = system: MDA-MB-231; experiment: Induction of apoptosis in human MDA-MB-231 cells assessed as increase in caspase 3/7 activity at 5 uM incubated for 24 hrs by flow cytometry analysis; format: functional
[8] = system: KB 3-1; experiment: Antiproliferative activity against human KB 3-1 cells assessed as decrease in cell growth at 500 nM incubated for 72 hrs by crystal violet staining based assay; format: functional
[9] = Acute toxicity in C57BL/6 mouse assessed as ratio of neutrophil to lymphocyte count at 20 mg/kg,ip administration and observed after 22 days; format: organism-based; settings: in vivo, 528 h, time 22 day
[10] = system: SNB-75; experiment: Growth inhibition against human SNB-75 cells assessed as total growth inhibitory concentration incubated for 48 hrs by sulforhodamine B spectrophotometric assay; format: functional
[11] = system: A498; experiment: Growth inhibition against human A498 cells assessed as total growth inhibitory concentration incubated for 48 hrs by sulforhodamine B spectrophotometric assay; format: functional
[12] = system: SW-620; experiment: Growth inhibition against human SW620 cells assessed as total growth inhibitory concentration incubated for 48 hrs by sulforhodamine B spectrophotometric assay; format: functional
[13] = Antileukemic activity against human CLL cell assessed as cell growth inhibition incubated for 72 hrs during remission period by MTT assay; format: functional, cell-based
[14] = Antileukemic activity against human CLL cell assessed as cell growth inhibition incubated for 72 hrs by MTT assay; format: functional, cell-based
[15] = system: IGROV-1; experiment: Growth inhibition against human IGROV-1 cells assessed as total growth inhibitory concentration incubated for 48 hrs by sulforhodamine B spectrophotometric assay; format: functional
[16] = system: PC-3; experiment: Growth inhibition against human PC-3 cells assessed as total growth inhibitory concentration incubated for 48 hrs by sulforhodamine B spectrophotometric assay; format: functional
[17] = system: 786-0; experiment: Growth inhibition against human 786-0 cells assessed as total growth inhibitory concentration incubated for 48 hrs by sulforhodamine B spectrophotometric assay; format: functional
[18] = system: SK-MEL-28; experiment: Growth inhibition of human SK-MEL-28 cells incubated for 48 hrs by sulforhodamine B spectrophotometric assay; format: functional
[19] = system: 786-0; experiment: Growth inhibition against human 786-0 cells assessed as lethal concentration incubated for 48 hrs by sulforhodamine B spectrophotometric assay; format: functional; settings: read-out: LC50 (the source's name)
[20] = system: HCC 2998; experiment: Growth inhibition against human HCC 2998 cells assessed as lethal concentration incubated for 48 hrs by sulforhodamine B spectrophotometric assay; format: functional; settings: read-out: LC50 (the source's name)
[21] = system: HCT-116; experiment: Cytotoxicity against human HCT-116 cells assessed as cell growth inhibition incubated for 72 hrs by MTT assay; format: functional, cell-based; settings: HCT-116, 72 h
[22] = system: KB 3-1; experiment: Induction of apoptosis in human KB 3-1 cells assessed as increase in […] protein expression at 0.5 to 5 uM incubated for 3 hrs by Western blotting assay; format: functional, cell-based; settings: dose 0.5-5 µM
[23] = system: KB 3-1; experiment: Induction of apoptosis in human KB 3-1 cells assessed as increase in BIP protein expression at 0.5 to 5 uM incubated for 3 hrs by Western blotting assay; format: functional, cell-based; settings: dose 0.5-5 µM
[24] = GSH reactivity of compound at pH 7.4 phosphate buffer assessed as GSH-adduct formation at 1 mM incubated for 1 hr by spectrophotometric analysis; format: physicochemical; settings: pH 7.4, 1 h, 1000 µM
[25] = system: EKVX; experiment: Growth inhibition of human EKVX cells incubated for 48 hrs by sulforhodamine B spectrophotometric assay; format: functional
[26] = system: SR; experiment: Growth inhibition against human SR cells assessed as lethal concentration incubated for 48 hrs by sulforhodamine B spectrophotometric assay; format: functional; settings: read-out: LC50 (the source's name)

O=C1C2=C(C(=O)c3c(O)cccc31)C(c1ccco1)c1sc(=O)[nH]c1S2 (stereo unspecified)
CC50 [1]: > 100 µM
Activity [2]: 67.05%
TGI [3]: 26.4 µM
GI50 [4]: 3.3 µM
Activity [5]: inactive
Activity [6]: Dose-Dependent Effect
Activity [7]: 10.6%
Activity [8]: Active
Ratio [9]: 0.465
TGI [10]: 7.61 µM
TGI [11]: 9.69 µM
TGI [12]: 10.5 µM
IC50 [13]: 28.2 µM
IC50 [14]: > 50 µM
TGI [15]: 6.14 µM
TGI [16]: 21.6 µM
TGI [17]: 24.2 µM
GI50 [18]: 1.87 µM
CC50 [19]: 71.2 µM
CC50 [20]: 18.4 µM
IC50 [21]: 0.6 µM
Activity [22]: inactive
Activity [23]: inactive
Activity [24]: Active
GI50 [25]: 6.75 µM
CC50 [26]: > 100 µM
